Positions of bridges follow the written chain, without caps; N, C: chain ends. Residues, ends and D or L forms follow the SMILES beside them.
Molecular target: Thrombospondin-1 (Homo sapiens, UniProt P07996)
Assay: TSP1 inhibitory activity
Experimental: As referred to herein, the TSP1 inhibitory activity refers to the activity to inhibit one or more effects of TSP1, including angiostatic effect. The TSP1 inhibitory activity is measured by a cell adhesion inhibition assay using human TSP1 and vascular endothelial cells as described hereinbelow in the Examples section. In this assay, when the 50% inhibitory concentration (IC5O) of a test substance is 200 nM or less, the test substance is determined to have TSP1 inhibitory activity.

Sequence of Thrombospondin-1 (P07996 whole entry): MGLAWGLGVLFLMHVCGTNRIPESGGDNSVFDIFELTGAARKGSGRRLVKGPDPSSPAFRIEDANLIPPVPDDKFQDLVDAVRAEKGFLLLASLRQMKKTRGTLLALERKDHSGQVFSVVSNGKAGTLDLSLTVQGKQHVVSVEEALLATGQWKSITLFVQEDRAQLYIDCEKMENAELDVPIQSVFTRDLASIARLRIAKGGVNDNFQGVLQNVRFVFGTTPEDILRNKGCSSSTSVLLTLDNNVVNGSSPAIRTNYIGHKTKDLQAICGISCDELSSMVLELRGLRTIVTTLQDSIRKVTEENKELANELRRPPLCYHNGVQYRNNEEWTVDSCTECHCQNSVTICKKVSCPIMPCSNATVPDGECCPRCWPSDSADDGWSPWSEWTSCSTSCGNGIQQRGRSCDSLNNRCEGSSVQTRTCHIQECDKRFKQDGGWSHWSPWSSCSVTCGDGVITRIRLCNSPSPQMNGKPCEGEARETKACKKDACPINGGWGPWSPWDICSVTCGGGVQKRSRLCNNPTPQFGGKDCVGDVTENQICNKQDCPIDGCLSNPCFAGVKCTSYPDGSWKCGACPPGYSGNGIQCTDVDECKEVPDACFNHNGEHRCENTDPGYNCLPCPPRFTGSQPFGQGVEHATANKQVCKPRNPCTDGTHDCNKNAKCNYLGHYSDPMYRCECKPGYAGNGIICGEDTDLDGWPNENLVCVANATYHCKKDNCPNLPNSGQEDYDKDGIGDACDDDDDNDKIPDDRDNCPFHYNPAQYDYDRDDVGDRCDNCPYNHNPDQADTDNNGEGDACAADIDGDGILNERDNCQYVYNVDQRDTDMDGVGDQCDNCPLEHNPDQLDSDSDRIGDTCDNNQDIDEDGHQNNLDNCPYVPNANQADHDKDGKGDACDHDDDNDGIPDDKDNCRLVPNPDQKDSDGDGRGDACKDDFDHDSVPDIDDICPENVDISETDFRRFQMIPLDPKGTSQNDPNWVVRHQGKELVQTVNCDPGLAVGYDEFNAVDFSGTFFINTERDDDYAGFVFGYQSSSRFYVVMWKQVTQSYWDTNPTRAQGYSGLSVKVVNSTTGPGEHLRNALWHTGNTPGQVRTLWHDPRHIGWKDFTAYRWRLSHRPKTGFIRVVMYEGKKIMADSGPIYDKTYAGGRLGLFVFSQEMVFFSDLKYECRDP

- Kd: 0.091 nM
Compound: CC[C@H](C)[C@@H]1NC(=O)[C@H](Cc2ccccc2)NC(=O)CSC[C@@H](C(N)=O)NC(=O)[C@H](C(C)C)NC(=O)[C@H](Cc2c[nH]c3ccccc23)NC(=O)[C@H](CCCNC(=N)N)NC(=O)[C@H](C(C)C)NC(=O)[C@H](Cc2c[nH]c3ccccc23)NC(=O)[C@H](CC(N)=O)NC(=O)[C@H](CCCCN)NC(=O)CNC(=O)[C@H](CO)NC1=O [US11149066, Compound 10] ({CH2CO}-FISGKNWVRWVC-NH2; thioether N-12)

Source: BindingDB's records for patent US11149066 (Daiichi Sankyo, 2021)
